Reference: patent publication US7834013B2, “Aminophenylcyclopropyl carboxylic acids and derivatives as agonists to GPR40” (GlaxoSmithKline LLC, priority 2003, dated 2010)
Counter-ions that a name gives are not always drawn.

Target: T1, GPR40 (Homo sapiens, UniProt O14842)
T1 construct: expressed in transfected cells
Assay: GPR40 SAR Primary Assay (Elk-1/Gal4-luc+ reporter, luciferase activity)
Format: cell-based
Settings: stable GPR40 Elk-1/Gal4-luc+ CHO cell line, 5 hours incubation
Procedure: An existing stable GPR40 Elk-1/Gal4-luc^+ CHO cell line generated by electroporation and functional cloning was used. Cells were maintained in a humidified incubator at 37° C./5% CO2 in complete media containing DMEM/F12 (Gibco, #11039-021), 5% FBS (Gibco, #16140-071) and 1% Glutamine (Gibco, #25030-081). Cell maintenance passages were made at 1:40 dilution every 3-4 days. Forty eight hours prior to assay, 15e6 cells were added to 200 ml of complete media then seeded into a 1200 cm^2-cell factory and returned to a humidified incubator at 37° C./5% CO2. 20 hours prior to assay, the growth media was removed and replaced with 200 ml of serum-free DMEM/F12 to quiesce background activity. At the time of assay, cells were harvested using non-enzymatic cell dissociation solution (Sigma, #C-5914), washed and counted. The 20 hour starve media was collected and used as condition media for cell assay plating. Cells were plated at a concentration of 10,000 cells/well in a total well volume of […] in black 96-well clear bottom polystyrene plates (CoStar, #3904). Test compounds were prepared as serial dilutions in 100% DMSO, then 1 ul was delivered to each well resulting in a final concentration of 1% DMSO. The plates were then returned to a humidified incubator at 37° C./5% CO2 for 5 hours. Following the incubation, the medium was replaced with 50 ul of a 1:1 mixture of SteadyGlo™ (Promega, #E2550) and dPBS containing 1 mM CaCl2 and 1 mM MgCl2. Plates were then sealed and subjected to dark adaptation at room temperature for 10 minutes. Luciferase activity was measured on a Packard TopCount™ microplate scintillation counter using 2 seconds per well count time.
Data analysis was performed using standard methods.
The Normalization Equation used was 100*(Unknown compound response−Background response)/(Agonist Max response−Background response).
The Curve Fit Function used was y=((Vmax*x^n)/(K^n+x^n))+Y2.
A percent max response and pEC50 were recorded for each compound. Although specific pEC50 values are given, these values should be considered exemplary. Those skilled in the art will appreciate the variability in performing and recording the biological activity assays that are herein described. The compounds of the present invention provide a pEC50 of at least 5.0.

T1 sequence (O14842 whole entry): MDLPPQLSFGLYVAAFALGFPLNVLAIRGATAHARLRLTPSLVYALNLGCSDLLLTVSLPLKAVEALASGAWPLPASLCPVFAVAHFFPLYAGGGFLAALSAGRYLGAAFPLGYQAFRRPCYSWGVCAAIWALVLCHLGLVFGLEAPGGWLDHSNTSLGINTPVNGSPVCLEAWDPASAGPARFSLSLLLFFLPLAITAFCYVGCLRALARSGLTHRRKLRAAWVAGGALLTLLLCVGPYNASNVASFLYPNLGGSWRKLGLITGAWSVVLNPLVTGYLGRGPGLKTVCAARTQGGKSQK

Compound	EC50 [µM]
O=C(O)C1CC1c1ccc(NCc2cccc(Oc3ccccc3)c2)cc1 (racemic) [Example 1, Racemic-(trans)-2-[4-({[3-(phenyloxy)phenyl]methyl}ammonium)phenyl]cyclopropanecarboxylic Acid Trifluoroacetate]	0.0126
O=C(O)[C@@H]1C[C@H]1c1ccc(NCc2ccc(-c3ccccc3)cc2)cc1 (racemic) [Example 2, Racemic-(trans)-2-{4-[(4-biphenylylmethyl)amino]phenyl}cyclopropanecarboxylic Acid]	0.0251
O=C(O)[C@@H]1C[C@H]1c1ccc(NCc2ccc(-c3ccccn3)cc2)cc1 (racemic) [Example 3, Racemic-(trans)-2-[4-({[4-(2-pyridinyl)phenyl]methyl}amino)phenyl]cyclopropanecarboxylic Acid]	1.58
COc1ccc(Oc2cccc(CNc3ccc(C4CC4C(=O)O)cc3)c2)cc1 (racemic) [Example 5, Racemic-(trans)-2-(4-{[(3-{[4-(methyloxy)phenyl]oxy}phenyl)methyl]ammonium}phenyl)-cyclopropanecarboxylic Acid Trifluoroacetate]	0.02
Cc1ccc(Oc2cccc(CNc3ccc(C4CC4C(=O)O)cc3)c2)cc1 (racemic) [Example 10, Racemic-(trans)-2-{4-[({3-[(4-methylphenyl)oxy]phenyl}methyl)ammonium]phenyl}-cyclopropanecarboxylic Acid Trifluoroacetate]	0.01
O=C(O)C1CC1c1ccc(NCc2cccc(OCc3ccccc3)c2)cc1 (racemic) [Example 11, Racemic-(trans)-2-{4-[({3-[(phenylmethyl)oxy]phenyl}methyl)ammonium]phenyl}-cyclopropanecarboxylic Acid Trifluoroacetate]	0.126
Cc1nc(-c2ccc(C(F)(F)F)cc2)sc1CNc1ccc([C@@H]2C[C@H]2C(=O)O)cc1 (racemic) [Example 13, Racemic-(trans)-2-{4-[({4-methyl-2-[4-(trifluoromethyl)phenyl]-1,3-thiazol-5-yl}methyl)amino]phenyl}cyclopropanecarboxylic Acid]	0.02

The remaining molecules from weak to strong by EC50, led by results:

EC50 [µM]	Compound
0.398	Cc1nc(Oc2ccccc2)sc1CNc1ccc(C2CC2C(=O)O)cc1 (racemic) [Example 12, Racemic-(trans)-2-[4-({[4-methyl-2-(phenyloxy)-1,3-thiazol-5-yl]methyl}ammonium)-phenyl]cyclopropanecarboxylic Acid Trifluoroacetate]
0.02	CC(C)(C)c1ccc(Oc2cccc(CNc3ccc(C4CC4C(=O)O)cc3)c2)cc1 (racemic) [Example 7, Racemic-(trans)-2-(4-{[(3-{[4-(1,1-dimethylethyl)phenyl]oxy}phenyl)methyl]ammonium}phenyl)cyclopropanecarboxylic Acid Trifluoroacetate]
0.0158	O=C(O)C1CC1c1ccc(NCc2cccc(Oc3ccc(Cl)cc3)c2)cc1 (racemic) [Example 6, Racemic-(trans)-2-{4-[({3-[(4-chlorophenyl)oxy]phenyl}methyl)ammonium]phenyl}-cyclopropanecarboxylic Acid Trifluoroacetate]
0.00794	O=C(O)C1CC1c1ccc(NCc2cccc(Oc3cccc(C(F)(F)F)c3)c2)cc1 (racemic) [Example 9, Racemic-(trans)-2-(4-{[(3-{[3-(trifluoromethyl)phenyl]oxy}phenyl)methyl]ammonium}-phenyl)cyclopropanecarboxylic Acid Trifluoroacetate]
0.00631	O=C(O)C1CC1c1ccc(NCc2cccc(Oc3cc(Cl)cc(Cl)c3)c2)cc1 (racemic) [Example 8, Racemic-(trans)-2-{4-[({3-[(3,5-dichlorophenyl)oxy]phenyl}methyl)ammonium]phenyl}-cyclopropanecarboxylic Acid Trifluoroacetate]
0.002	O=C(O)C1CC1c1ccc(NCc2cccc(Oc3ccc(Cl)c(Cl)c3)c2)cc1 (racemic) [Example 4, Racemic-(trans)-2-{4-[({3-[(3,4-dichlorophenyl)oxy]phenyl}methyl)ammonium]phenyl}-cyclopropanecarboxylic Acid Trifluoroacetate]
